In ChEMBL document CHEMBL1909046, “DrugMatrix in vitro pharmacology data”:

Columns and labels:
[1] = biological target: T1, Alpha-1A adrenergic receptor (Rattus norvegicus, UniProt P43140); test: DRUGMATRIX: Alpha-1A adrenergic receptor radioligand binding (ligand: prazosin); assay type: cell membranes, Wistar, Submaxillary gland, Membrane; details: Not Active = under 50% inhibition at 10 µM
T1 sequence (P43140 whole entry): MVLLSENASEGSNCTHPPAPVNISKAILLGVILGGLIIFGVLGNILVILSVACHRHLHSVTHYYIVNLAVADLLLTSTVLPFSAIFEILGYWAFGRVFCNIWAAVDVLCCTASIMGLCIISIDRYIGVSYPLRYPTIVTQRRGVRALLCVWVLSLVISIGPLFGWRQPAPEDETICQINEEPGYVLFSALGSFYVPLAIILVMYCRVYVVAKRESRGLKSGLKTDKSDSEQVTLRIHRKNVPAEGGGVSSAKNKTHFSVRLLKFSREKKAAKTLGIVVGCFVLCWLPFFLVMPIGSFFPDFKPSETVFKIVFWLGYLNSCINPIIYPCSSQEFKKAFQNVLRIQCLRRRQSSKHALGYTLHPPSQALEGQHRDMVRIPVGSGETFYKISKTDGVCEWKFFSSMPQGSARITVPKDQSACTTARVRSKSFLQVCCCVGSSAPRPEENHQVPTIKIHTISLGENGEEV

Progesterone receptor = biological target: T2, Progesterone receptor (Bos taurus, UniProt Q690N0); test: DRUGMATRIX: Progesterone radioligand binding (ligand: [3H] R-5020); assay type: tissue-based, Uterus; details: Not Active = under 50% inhibition at 10 µM
T2 sequence (Q690N0 whole entry): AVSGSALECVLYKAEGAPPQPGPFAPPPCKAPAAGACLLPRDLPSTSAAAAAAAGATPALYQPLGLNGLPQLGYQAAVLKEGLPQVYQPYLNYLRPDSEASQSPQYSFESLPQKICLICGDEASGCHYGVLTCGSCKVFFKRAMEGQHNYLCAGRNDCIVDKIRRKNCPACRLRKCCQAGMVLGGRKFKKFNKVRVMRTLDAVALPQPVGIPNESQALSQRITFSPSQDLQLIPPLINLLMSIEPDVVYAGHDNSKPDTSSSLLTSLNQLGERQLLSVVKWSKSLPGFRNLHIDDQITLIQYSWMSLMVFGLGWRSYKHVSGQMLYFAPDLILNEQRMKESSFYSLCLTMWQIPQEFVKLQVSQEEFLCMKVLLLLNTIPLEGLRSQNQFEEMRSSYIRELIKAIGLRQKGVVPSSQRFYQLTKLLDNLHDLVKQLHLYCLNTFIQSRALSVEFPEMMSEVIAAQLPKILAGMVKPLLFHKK

[2] = biological target: Platelet-activating factor receptor (Homo sapiens, UniProt P25105); assay type: tissue-based; also: in other assays of this panel Not Active means under 50% inhibition at 10 µM
[3] = DRUGMATRIX: GABAA, Muscimol, Central radioligand binding (ligand: [3H] Muscimol); assay type: cell membranes, Rattus norvegicus, Wistar, Brain, Membrane; details: Not Active = under 50% inhibition at 10 µM
[4] = biological target: cGMP-specific 3',5'-cyclic phosphodiesterase (Homo sapiens, UniProt O76074); test: DRUGMATRIX: Phosphodiesterase PDE5 enzyme inhibition (substrate: [3H]cGMP + cGMP); assay type: tissue-based, Platelet; details: platelet; Not Active = under 50% inhibition at 10 µM
[5] = biological target: Voltage-gated inwardly rectifying potassium channel KCNH2 (Homo sapiens, UniProt Q12809); details: hek293; also: in other assays of this panel Not Active means under 50% inhibition at 10 µM
[6] = DRUGMATRIX: Glutamate, NMDA, Agonism radioligand binding (ligand: [3H] CGP-39653); assay type: cell membranes, Rattus norvegicus, Wistar, Cerebral cortex, Membrane; details: Not Active = under 50% inhibition at 10 µM
Melanocortin receptor 5 = Melanocortin receptor 5 (Homo sapiens, UniProt P33032); assay type: cell membranes, HEK293, Membrane; details: hek293; also: in other assays of this panel Not Active means under 50% inhibition at 10 µM
Sequence of Melanocortin receptor 5 (P33032 whole entry): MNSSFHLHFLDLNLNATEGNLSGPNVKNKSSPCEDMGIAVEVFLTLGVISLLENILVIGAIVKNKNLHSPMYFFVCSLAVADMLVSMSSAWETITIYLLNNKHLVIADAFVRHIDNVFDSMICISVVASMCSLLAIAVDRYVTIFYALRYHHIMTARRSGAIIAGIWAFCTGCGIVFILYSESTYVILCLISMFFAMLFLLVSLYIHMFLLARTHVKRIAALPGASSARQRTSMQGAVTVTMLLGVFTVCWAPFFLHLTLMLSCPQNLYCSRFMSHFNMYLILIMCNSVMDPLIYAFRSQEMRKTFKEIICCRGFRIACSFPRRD

Sequence of Voltage-gated inwardly rectifying potassium channel KCNH2 (Q12809 whole entry): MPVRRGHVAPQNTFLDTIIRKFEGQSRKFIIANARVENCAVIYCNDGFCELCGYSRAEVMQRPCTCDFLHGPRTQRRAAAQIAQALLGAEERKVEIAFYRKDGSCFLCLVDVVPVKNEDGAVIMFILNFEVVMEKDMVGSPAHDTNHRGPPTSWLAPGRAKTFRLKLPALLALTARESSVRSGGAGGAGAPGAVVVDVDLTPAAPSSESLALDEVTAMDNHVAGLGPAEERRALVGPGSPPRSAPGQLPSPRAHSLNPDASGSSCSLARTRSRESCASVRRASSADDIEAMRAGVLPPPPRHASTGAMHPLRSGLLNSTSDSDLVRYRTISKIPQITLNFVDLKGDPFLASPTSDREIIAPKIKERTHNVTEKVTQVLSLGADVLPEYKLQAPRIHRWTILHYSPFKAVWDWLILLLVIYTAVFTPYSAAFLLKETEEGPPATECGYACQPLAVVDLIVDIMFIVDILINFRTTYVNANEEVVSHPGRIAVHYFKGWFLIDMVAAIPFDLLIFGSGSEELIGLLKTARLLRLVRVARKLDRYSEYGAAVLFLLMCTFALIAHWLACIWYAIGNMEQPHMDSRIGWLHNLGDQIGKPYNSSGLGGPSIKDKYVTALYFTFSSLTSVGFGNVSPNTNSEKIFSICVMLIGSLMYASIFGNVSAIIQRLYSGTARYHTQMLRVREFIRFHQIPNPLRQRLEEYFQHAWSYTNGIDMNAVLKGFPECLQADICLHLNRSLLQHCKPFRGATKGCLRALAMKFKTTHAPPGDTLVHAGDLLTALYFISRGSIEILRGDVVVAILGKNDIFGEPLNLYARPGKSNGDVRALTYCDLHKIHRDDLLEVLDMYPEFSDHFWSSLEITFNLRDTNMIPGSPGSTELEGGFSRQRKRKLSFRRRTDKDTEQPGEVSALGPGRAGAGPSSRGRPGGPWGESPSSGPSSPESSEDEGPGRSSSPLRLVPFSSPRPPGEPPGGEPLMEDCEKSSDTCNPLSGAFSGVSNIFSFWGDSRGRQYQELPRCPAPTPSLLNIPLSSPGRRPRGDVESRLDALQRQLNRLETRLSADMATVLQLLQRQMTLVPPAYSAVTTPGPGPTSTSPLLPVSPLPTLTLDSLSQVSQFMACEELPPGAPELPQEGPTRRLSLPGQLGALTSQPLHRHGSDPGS
Sequence of Platelet-activating factor receptor (P25105 whole entry): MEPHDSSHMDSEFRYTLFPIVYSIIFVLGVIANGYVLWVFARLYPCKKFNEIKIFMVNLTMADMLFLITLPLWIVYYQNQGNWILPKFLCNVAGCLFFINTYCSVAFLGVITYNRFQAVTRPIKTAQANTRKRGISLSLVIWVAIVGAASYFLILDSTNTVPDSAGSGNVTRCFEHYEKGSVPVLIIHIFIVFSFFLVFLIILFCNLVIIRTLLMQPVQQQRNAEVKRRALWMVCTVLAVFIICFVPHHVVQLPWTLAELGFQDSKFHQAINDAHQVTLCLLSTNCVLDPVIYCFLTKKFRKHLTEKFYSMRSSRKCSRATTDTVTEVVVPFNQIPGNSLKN

C[N+](C)(C)CCOC(N)=O.[Cl-] [CARBACHOL]
Not Active: IC50 [1] | IC50 (Progesterone receptor) | IC50 [2] | IC50 [3] | Ki [3] | IC50 [4] | IC50 [5] | Ki [5] | IC50 [6] | Ki [6] | IC50 (Melanocortin receptor 5)

C[C@]12CC[C@@H](O)C[C@@H]1CC[C@@H]1[C@@H]2CC[C@]2(C)C(=O)CC[C@@H]12 [ANDROSTERONE]
Not Active: IC50 [1] | IC50 (Progesterone receptor) | IC50 [2] | IC50 [3] | Ki [3] | IC50 [4] | IC50 [5] | Ki [5] | IC50 [6] | Ki [6] | IC50 (Melanocortin receptor 5)

C[C@H](C(=O)O)c1ccc2oc(-c3ccc(F)cc3)nc2c1 [FLUNOXAPROFEN]
Not Active: IC50 [1] | IC50 (Progesterone receptor) | IC50 [2] | IC50 [3] | Ki [3] | IC50 [4] | IC50 [5] | Ki [5] | IC50 [6] | Ki [6] | IC50 (Melanocortin receptor 5)

COPPER(II) OXIDE
Not Active: IC50 [1] | Ki [1] | IC50 (Progesterone receptor) | Ki (Progesterone receptor) | IC50 [2] | Ki [2] | IC50 [3] | Ki [3] | IC50 [4] | Ki [4] | IC50 [5] | Ki [5] | IC50 [6] | Ki [6] | IC50 (Melanocortin receptor 5) | Ki (Melanocortin receptor 5)

NC(=O)CN1CCCC1=O
Not Active: IC50 [1] | IC50 (Progesterone receptor) | IC50 [2] | IC50 [3] | Ki [3] | IC50 [4] | IC50 [5] | Ki [5] | IC50 [6] | Ki [6] | IC50 (Melanocortin receptor 5)

CCN1C[C@]2(COC)[C@H](O)C[C@H](OC)[C@@]34[C@@H]5C[C@@]6(O)[C@H](OC(=O)c7ccccc7)[C@@H]5[C@@](OC(C)=O)([C@@H]([C@H](OC)[C@H]23)[C@@H]14)[C@@H](O)[C@@H]6OC [ACONITINE]
Not Active: IC50 [1] | IC50 (Progesterone receptor) | IC50 [2] | IC50 [3] | Ki [3] | IC50 [4] | IC50 [6] | Ki [6] | IC50 (Melanocortin receptor 5)

COc1ccccc1OCCNCC(O)COc1cccc2[nH]c3ccccc3c12 (centres undefined) [CARVEDILOL]
Not Active: IC50 (Progesterone receptor) | IC50 [2] | IC50 [3] | Ki [3] | IC50 [4] | IC50 [6] | Ki [6] | IC50 (Melanocortin receptor 5)

NS(=O)(=O)c1cc(C(=O)O)c(NCc2ccco2)cc1Cl [FUROSEMIDE]
Not Active: IC50 [1] | IC50 (Progesterone receptor) | IC50 [2] | IC50 [3] | Ki [3] | IC50 [4] | IC50 [6] | Ki [6] | IC50 (Melanocortin receptor 5)

CCN1CCN(C(=O)N[C@@H](C(=O)N[C@@H]2C(=O)N3[C@@H]2SC(C)(C)[C@@H]3C(=O)O)c2ccccc2)C(=O)C1=O [PIPERACILLIN]
Not Active: IC50 [1] | IC50 (Progesterone receptor) | IC50 [2] | IC50 [3] | Ki [3] | IC50 [4] | IC50 [6] | Ki [6] | IC50 (Melanocortin receptor 5)

CC[C@H]1OC(=O)[C@H](C)[C@@H](O[C@H]2C[C@@](C)(OC)[C@@H](O)[C@H](C)O2)[C@H](C)[C@@H](O[C@@H]2O[C@H](C)C[C@H](N(C)C)[C@H]2O)[C@](C)(O)C[C@@H](C)C(=O)[C@H](C)[C@@H](O)[C@]1(C)O [ERYTHROMYCIN]
Not Active: IC50 [1] | IC50 (Progesterone receptor) | IC50 [2] | IC50 [3] | Ki [3] | IC50 [4] | IC50 [6] | Ki [6] | IC50 (Melanocortin receptor 5)

NC(N)=Nc1nc(CSCCC(N)=NS(N)(=O)=O)cs1 [FAMOTIDINE]
Not Active: IC50 [1] | IC50 (Progesterone receptor) | IC50 [2] | IC50 [3] | Ki [3] | IC50 [4] | IC50 [6] | Ki [6] | IC50 (Melanocortin receptor 5)

CC(C)NCC(O)COc1ccc(CC(N)=O)cc1 (centres undefined) [ATENOLOL]
Not Active: IC50 [1] | IC50 (Progesterone receptor) | IC50 [2] | IC50 [3] | Ki [3] | IC50 [4] | IC50 [6] | Ki [6] | IC50 (Melanocortin receptor 5)

Cc1cc(C(C)(C)C)c(O)c(C)c1CC1=NCCN1 [OXYMETAZOLINE]
Not Active: IC50 (Progesterone receptor) | IC50 [2] | IC50 [3] | Ki [3] | IC50 [4] | IC50 [5] | Ki [5] | IC50 [6] | Ki [6] | IC50 (Melanocortin receptor 5)

Oc1ccccc1 [PHENOL]
Not Active: IC50 [1] | IC50 [2] | IC50 [3] | Ki [3] | IC50 [4] | IC50 [5] | Ki [5] | IC50 [6] | Ki [6] | IC50 (Melanocortin receptor 5)

COc1ccc(Cl)cc1C(=O)NCCc1ccc(S(=O)(=O)NC(=O)NC2CCCCC2)cc1 [GLYBURIDE]
Not Active: IC50 [1] | IC50 (Progesterone receptor) | IC50 [2] | IC50 [3] | Ki [3] | IC50 [4] | IC50 [6] | Ki [6] | IC50 (Melanocortin receptor 5)

CNC[C@H](O)c1ccc(O)c(O)c1 [EPINEPHRINE]
Not Active: IC50 (Progesterone receptor) | IC50 [2] | IC50 [3] | Ki [3] | IC50 [4] | IC50 [5] | Ki [5] | IC50 (Melanocortin receptor 5)

CC(CN1c2ccccc2Sc2ccccc21)N(C)C (centres undefined) [PROMETHAZINE]
Not Active: IC50 (Progesterone receptor) | IC50 [2] | IC50 [3] | Ki [3] | IC50 [4] | IC50 [5] | Ki [5] | IC50 [6] | Ki [6] | IC50 (Melanocortin receptor 5)
